Measurements reported in patent US11021445B2, “Carboxylic acid derivative as AT2R receptor antagonist” (SHANDONG DANHONG PHARMACEUTICAL CO., LTD., priority 2017, dated 2021).

molecular target: T1, hAT2 (Homo sapiens, UniProt P50052); test: hAT2 receptor binding assay (SPA, [125I]-Sar1-Ile8-Angiotensin II); conditions: membrane of HEK-293 cells overexpressing hAT2; 0.1 nM 125I ligand
T1 construct: expressed in transfected cells; host or cells: HEK-293
T1 sequence (P50052 1-363): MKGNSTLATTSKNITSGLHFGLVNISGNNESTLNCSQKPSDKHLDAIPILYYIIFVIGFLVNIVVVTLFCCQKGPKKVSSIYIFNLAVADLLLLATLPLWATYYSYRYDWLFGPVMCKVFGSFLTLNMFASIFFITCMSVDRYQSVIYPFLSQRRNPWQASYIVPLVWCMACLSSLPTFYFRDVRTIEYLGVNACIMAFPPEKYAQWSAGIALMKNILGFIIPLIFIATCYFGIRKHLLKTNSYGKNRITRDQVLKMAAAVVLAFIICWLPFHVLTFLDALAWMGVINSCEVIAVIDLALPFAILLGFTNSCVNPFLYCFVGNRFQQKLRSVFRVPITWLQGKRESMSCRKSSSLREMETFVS
Protocol: hAT2 Receptor Binding Assay
Protease inhibitor mixture, free of ethylenediaminetetraacetic acid-1 tablets (Roche #11873580001) (50 mL plus one piece)
Experimental Methods and Steps
The reference ligand PD123319 and the test compound were prepared into a 750 μM mother liquor by DMSO; each compound was prepared into a solution of 8 concentration gradients (up to a concentration of 750 μM, 3-fold dilution) and 10 μl of the solution was added to a master of a 384-well plate per well.
The SPA beads were prepared to a mother liquor of 25 mg/ml by the buffer;
The isotope [^125I]-Sar1-Ile8-Angiotensin II was prepared into a mother liquor of 50 μCi/ml by adding pure water.
The cell membrane overexpressing hAT2 in HEK-293 cells was prepared to 2.5 mg/ml by the buffer.
200 nl of compound was aspirated from the mother plate with ECHO to each well of the 384-well test plate. ZPE was added to an equal volume of DMSO. (The concentration of the test compound in the reaction was diluted by 250 times).
A 50 ml membrane solution containing 10 μg/μl of magnetic beads and 0.05 μg/μl of AT2 was prepared, placed on a shaker and uniformly mixed. (100 rpm, 30 min). The test plate finally contained an hAT2 membrane with 1.25 μg/well and magnetic beads with 250 μg/well.
A 3.2 ml membrane liquid mixture was added to the compound test plate by using a Multidrop Combi pipette, and 25 μl was added to each well.
A 0.2 nM solution was prepared with 50 μCi/ml of isotope [^125I]-Sar1-Ile8-Angiotensin II mother liquor by the buffer, and 0.2 nM of ^125I was added to the compound test plate with a Multidrop Combi pipette. A volume of 25 μl was added to each well. The final concentration of ^125I isotope is 0.1 nM.
The prepared test plate was placed on a shaker overnight at room temperature at 200 rpm.
The test plate was centrifuged with a centrifuge at 1200 rpm for 1 min.
The centrifuged test plate was read with Microbeta.

| SMILES | IC50 |
| --- | --- |
| O=C(O)[C@@H]1Cc2c(cccc2OCc2ccccc2)CN1C(=O)[C@@H](O[C@H]1C[C@@H](O)C1)c1ccccc1 [Compound 85] | 83.5 nM |
| COc1ccc(O[C@H](C(=O)N2Cc3ccc(OC)c(OCc4ccccc4)c3C[C@H]2C(=O)O)c2ccccc2)cc1 [Compound 23] | > 3000 nM |
| COCCO[C@@H](C(=O)N1Cc2ccc(OC)c(OCc3ccccc3)c2C[C@H]1C(=O)O)c1ccccc1 [Compound 4] | 836 nM |
| COc1ccc2c(c1OCc1ccccc1)C[C@@H](C(=O)O)N(C(=O)[C@@H](O[C@H]1CCOC1)c1ccccc1)C2 (single isomer, unassigned) [Compound 11] | > 3000 nM |
| COc1ccc2c(c1OCc1ccccc1)C[C@](C)(C(=O)O)N(C(=O)[C@H](OC1CCCC1)c1ccccc1)C2 [Compound 114] | 412 nM |
| COc1ccc2c(c1OCc1ccccc1)C[C@@H](C(=O)O)N(C(=O)[C@H](OCC(F)(F)F)c1ccccc1)C2 [Compound 8] | 513 nM |
| COc1ccc2c(c1OCc1ccccc1)C[C@@H](C(=O)O)N(C(=O)[C@H](Oc1ccc(F)cc1)c1ccccc1)C2 [Compound 32] | 78.3 nM |
| COc1ccc2c(c1OCc1ccccc1)C[C@@H](C(=O)O)N(C(=O)[C@@H](Oc1ccc(F)cc1)c1ccccc1)C2 [Compound 31] | 59.6 nM |
| CCCCO[C@H](C(=O)N1Cc2ccc(OC)c(OCc3ccccc3)c2C[C@H]1C(=O)O)c1ccccc1 [Compound 5] | 17.7 nM |
| COc1ccc2c(c1OCc1ccccc1)C[C@@H](C(=O)O)N(C(=O)[C@@H](OC1CCCC1)c1ccc(F)cc1)C2 [Compound 53] | 84.1 nM |
| COc1ccc2c(c1OCc1ccccc1)C[C@@H](C(=O)O)N(C(=O)C(OC1CCC(O)CC1)c1ccccc1)C2 (stereo partly drawn) [Compound 48] | 21.4 nM |
| Cc1ccc2c(c1OCc1ccccc1)C[C@@H](C(=O)O)N(C(=O)[C@@H](OC1(C)CCCC1)c1ccccc1)C2 [Compound 69] | 1.7 nM |
| O=C(O)[C@H]1Cc2c(ccc(Cl)c2OCc2ccccc2)CN1C(=O)[C@@H](OC1CCCC1)c1ccccc1 [Compound 108] | 234 nM |
| COc1ccc2c(c1OCc1ccccc1)C[C@@H](C(=O)O)N(C(=O)[C@H](Oc1ccc3ccccc3c1)c1ccccc1)C2 [Compound 36] | 97.1 nM |
| COc1ccc2c(c1OCc1ccccc1)C[C@@H](C(=O)O)N(C(=O)[C@H](Oc1ccc(Cl)cc1)c1ccccc1)C2 [Compound 34] | 227 nM |
| CC1(O[C@@H](C(=O)N2Cc3ccc(Cl)c(OCc4ccccc4)c3C[C@H]2C(=O)O)c2ccccc2)CCCC1 [Compound 76] | 72.7 nM |
| COc1ccc2c(c1OCc1ccccc1)C[C@@H](C(=O)O)N(C(=O)[C@@H](Oc1ccc(Cl)cc1)c1ccccc1)C2 [Compound 33] | 648 nM |
| COc1ccc2c(c1OCc1ccccc1)C[C@@H](C(=O)O)N(C(=O)[C@@H](O[C@@H]1CCOC1)c1ccccc1)C2 (single isomer, unassigned) [Compound 9] | 47.6 nM |
| O=C(O)[C@@H]1Cc2c(ccc(Cl)c2OCc2ccccc2)CN1C(=O)[C@H](O[C@H]1CC[C@@H](O)CC1)c1ccccc1 [Compound 78] | 7.4 nM |
| COc1ccc2c(c1OCc1ccccc1)C[C@@H](C(=O)O)N(C(=O)[C@H](O[C@H]1CC[C@@H](O)CC1)c1ccccc1)C2 [Compound 64] | 375 nM |
| COc1ccc2c(c1OCc1ccccc1)C[C@@H](C(=O)O)N(C(=O)C(OC1CCCC1)c1ccccc1)C2 (stereo partly drawn) [Compound 47] | 17 nM |
| COc1ccc2c(c1OCc1ccccc1)C[C@@H](C(=O)O)N(C(=O)[C@@H](OC1CCC3CC31)c1ccccc1)C2 (single isomer, unassigned) [Compound 60] | 2.5 nM |
| COc1ccc2c(c1OCc1ccccc1)C[C@@H](C(=O)O)N(C(=O)[C@H](OC1COC1)c1ccccc1)C2 [Compound 14] | > 3000 nM |
| COc1ccc2c(c1OCc1ccccc1)C[C@@H](C(=O)O)N(C(=O)[C@@H](Oc1ccccn1)c1ccccc1)C2 [Compound 21] | 195 nM |
| O=C(O)[C@@H]1Cc2c(ccc(Cl)c2OCc2ccccc2)CN1C(=O)[C@@H](OC1CC(F)(F)C1)c1ccccc1 [Compound 73] | 3.7 nM |
| CC1(O[C@@H](C(=O)N2Cc3cccc(OCc4ccccc4)c3C[C@H]2C(=O)O)c2ccccc2)CCCC1 [Compound 80] | 323 nM |

| SMILES | IC50 |
| --- | --- |
| COc1ccc2c(c1OCc1ccccc1)C[C@@H](C(=O)O)N(C(=O)[C@@H](Oc1ccc(C#N)cc1)c1ccccc1)C2 [Compound 29] | 231 nM |
| COc1ccc2c(c1OCc1ccccc1)C[C@@H](C(=O)O)N(C(=O)[C@@H](NC(=O)C1CCCC1)c1ccccc1)C2 [Compound 42] | 161 nM |
| COc1ccc2c(c1OCc1ccccc1)C[C@@](C)(C(=O)O)N(C(=O)[C@H](OC1CCCC1)c1ccccc1)C2 [Compound 115] | 115 nM |
| COc1ccc2c(c1OCc1ccccc1)C[C@@H](C(=O)O)N(C(=O)[C@H](OC1CC3CC3C1)c1ccccc1)C2 (stereo partly drawn) [Compound 56] | 224 nM |
| COCCO[C@H](C(=O)N1Cc2ccc(OC)c(OCc3ccccc3)c2C[C@H]1C(=O)O)c1ccccc1 [Compound 3] | 197 nM |
| COc1ccc2c(c1OCc1ccccc1)C[C@@H](C(=O)O)N(C(=O)[C@H](OC1CCOC1)c1ccccc1)C2 (single isomer, unassigned) [Compound 12] | > 3000 nM |
| COc1ccc2c(c1OCc1ccccc1)C[C@@H](C(=O)O)N(C(=O)[C@@H](Oc1c(F)cc(F)cc1F)c1ccccc1)C2 [Compound 15] | 96.4 nM |
| COc1ccc2c(c1OCc1ccccc1)C[C@@H](C(=O)O)N(C(=O)[C@H](Oc1c(F)cc(F)cc1F)c1ccccc1)C2 [Compound 16] | 16.5 nM |
| COc1ccc2c(c1OCc1ccccc1)C[C@@H](C(=O)O)N(C(=O)[C@@H](OC1COC1)c1ccccc1)C2 [Compound 13] | 154 nM |
| COc1ccc2c(c1OCc1ccccc1)C[C@@H](C(=O)O)N(C(=O)[C@H](OC1CC(F)(F)C1)c1ccccc1)C2 [Compound 52] | 126 nM |
| COc1ccc2c(c1OCc1ccccc1)C[C@@H](C(=O)O)N(C(=O)[C@H](OC1CCCC1)c1ccccc1)C2 [Compound 38] | 691 nM |
| COc1ccc2c(c1OCc1ccccc1)C[C@@H](C(=O)O)N(C(=O)[C@H](NC(=O)C1CCCC1)c1ccccc1)C2 [Compound 43] | > 3000 nM |
| COc1ccc2c(c1OCc1ccccc1)C[C@@H](C(=O)O)N(C(=O)[C@@H](Oc1ccc(F)cc1F)c1ccccc1)C2 [Compound 27] | 245 nM |
| COc1ccc2c(c1OCc1ccccc1)C[C@@H](C(=O)O)N(C(=O)[C@H](Oc1ccccc1F)c1ccccc1)C2 [Compound 18] | 54.1 nM |
| COc1ccc2c(c1OCc1ccccc1)C[C@@H](C(=O)O)N(C(=O)[C@H](Oc1ccccn1)c1ccccc1)C2 [Compound 22] | 1340 nM |
| COc1ccc2c(c1OCc1ccccc1)C[C@@H](C(=O)O)N(C(=O)[C@H](NC1CCCC1)c1ccccc1)C2 [Compound 41] | 216 nM |
| COc1ccc2c(c1OCc1ccccc1)C[C@@H](C(=O)O)N(C(=O)[C@@H](OC1CCC3CC31)c1ccccc1)C2 (single isomer, unassigned) [Compound 59] | 22.7 nM |
| N#Cc1ccc2c(c1OCc1ccccc1)C[C@H](C(=O)O)N(C(=O)[C@H](OC1CCCC1)c1ccccc1)C2 [Compound 112] | 116 nM |
| CC1(O[C@H](C(=O)N2Cc3ccc(Cl)c(OCc4ccccc4)c3C[C@H]2C(=O)O)c2ccccc2)CCCC1 [Compound 75] | 3.9 nM |
| O=C(O)[C@@H]1Cc2c(cccc2OCc2ccccc2)CN1C(=O)[C@H](OC1CC(F)(F)C1)c1ccccc1 [Compound 84] | 481 nM |
| COc1ccc2c(c1OCc1ccccc1)C[C@@H](C(=O)O)N(C(=O)[C@@H](OC1CCCCC1)c1ccccc1)C2 [Compound 44] | 8 nM |
| O=C(O)[C@@H]1Cc2c(cccc2OCc2ccccc2)CN1C(=O)[C@H](O[C@H]1CC[C@@H](O)CC1)c1ccccc1 [Compound 82] | 20.8 nM |
| COc1ccc2c(c1OCc1ccccc1)C[C@@H](C(=O)O)N(C(=O)[C@@H](NC1CCCC1)c1ccccc1)C2 [Compound 40] | 9.1 nM |
| Cc1ccc2c(c1OCc1ccccc1)C[C@@H](C(=O)O)N(C(=O)[C@H](O[C@H]1CC[C@@H](O)CC1)c1ccccc1)C2 [Compound 72] | 5.3 nM |
| CC1(O[C@H](C(=O)N2Cc3cccc(OCc4ccccc4)c3C[C@H]2C(=O)O)c2ccccc2)CCCC1 [Compound 79] | 5.8 nM |
